The values below come from patent publication US10406243B2, “Methods of treatment comprising a polyrotaxane and medicinal composition” (National University Corporation Tokyo Medical and Dental …, priority 2013, dated 2019).

For assay [1], the system named is NPC1 cells. Nature of the assay: LC3 and p62 expressions by Western blotting (Test Example 9). Format: cell-based, human. The procedure: The expressions of LC3 and p62 in the following cells were assayed by Western blotting as follows.
(§1) The cells were seeded on a 12-well plate (Nunc) (cell count: 1×10^5 cells/well), and incubated at 37° C. under a 5% CO2 atmosphere for one day, followed by the addition of the following samples and another 24-hour incubation.
(§2) After the culturing, the cells were washed with PBS, and then 150 μL of RIPA buffer (Wako) containing 1% protease inhibitor cocktail (Nacalai Tesque) and 1% Phosphatase inhibitor cocktail (Nacalai Tesque) was added, and the cells were lysed by shaking for 30 minutes. The cell lysate was centrifuged for 10 minutes at 15,000 rpm, and the supernatant was collected.
10 μL of the supernatant and 2.5 μL of Laemmli buffer (Bio-Rad) were mixed, and applied to a 12% acrylamide gel. Then, electrophoresis was performed at 150∇ for 45 minutes. Then, proteins were transferred to a polyvinylidene fluoride (PVDF) membrane (Bio-Rad) using trans-blot Turbo Blotting System (Bio-Rad). Then, blocking was carried out with 5% skim milk solution (Wako) for an hour.
After the blocking treatment, PVDF membranes were treated at 4° C. for one day with an antibody against LC3 which is an indicator of autophagy (purchased from MBL), an antibody against p62/SQSTM1 which is a selective autophagy substrate (purchased from MBL), and an anti-β-actin antibody (Sigma-Aldrich), each diluted with 1% skim milk solution.
After three washes with PBS, the PVDF membranes were treated for 1 hour at room temperature with HRP-conjugated goat anti-rabbit IgG diluted in 1% skim milk solution.
After three washes with PBS, the PVDF membranes were treated with Pierce Western Blotting Substrate, and the images were taken with ImageQuant LAS 500 system (GE Healthcare Bioscience).
For comparison, the following cases were also examined in a similar manner: a case where NHDF cells were used and none of the samples were added; a case where NHDF cells were used and Bafilomycin A1 (hereinafter, referred to as “Baf A”) was added instead of the sample; a case where NPC1 cells were used and none of the samples were added; and a case where NPC1 cells were used and Baf A was added instead of the sample.
(§3) Each of the relative expression levels was determined from the intensity of Western blot band. […]
For orientation: In western blotting, separated proteins are transferred to a membrane and probed.

Assay [2] relates to NPC1 cells (human dermal fibroblasts derived from a Niemann-Pick type C disease patient). Kind of assay: Accumulation of cholesterol, filipin staining observed by confocal microscope (Test Example 2). In kind it is cell-based. To be noted: equivalent to 100 μM of cyclodextrin, 24 hours. The procedure: Normal human dermal fibroblasts (hereinafter, referred to as “NHDF” or “NHDF cells”; obtained from Coriell Institute; number: GM05659) and human dermal fibroblasts derived from a Niemann-Pick type C disease patient (hereinafter, referred to as “NPC1” or “NPC1 cells”; obtained from Coriell Institute; number: GM03123) were used as follows to examine the cellular accumulation of cholesterol.
After the incubation, the cells were fixed with 4% paraformaldehyde, and following the addition of filipin (Polysciences) in PBS adjusted to 100 μg/mL, were allowed to stand for 45 minutes at room temperature. After washing the cells three times with PBS, the localization of cholesterol was observed by using a confocal laser scanning microscope, FluoView FV10i (Olympus). Moreover, the amount of intracellular cholesterol accumulation was determined.
In each image, the part shown in white indicates cholesterol. The amount added of each sample is equivalent to 100 μM of cyclodextrin.

Assay [3] shares this test system. Nature of the assay: Quantification of intracellular cholesterol accumulation, Amplex Red Cholesterol Assay Kit (Test Example 2). Format: cell-based. Particulars: equivalent to 100 μM of cyclodextrin, 24 hours. The procedure: The quantification of the amount of intracellular cholesterol accumulation was carried out as follows.
After the incubation the cells were lysed with cell lysis buffer to obtain cell lysates, and the intracellular cholesterol was determined by Amplex Red Cholesterol Assay Kit (Invitrogen) while the total cellular protein content was determined with Micro BCA Protein Assay Kit (Thermo Fisher Scientific). The total intracellular cholesterol content is shown as total cholesterol content (nmol)/total protein content (mg).
In FIG. 9, in order from the left, the results on the following are shown: “the case where NPC1 cells were used and none of the samples were added (non-treated)”, “the case where NPC1 cells were used and HP-β-CD was added as a sample (HP-β-CD added)”, “the case where NPC1 cells were used and DM-β-CD was added as a sample (DM-β-CD added)”, “the case where NPC1 cells were used and HE-SS-PRX was added as a sample (HE-SS-PRX added)”, “the case where NPC1 cells were used and HE-ace-PRX was added as a sample (HE-ace-PRX added)”, “the case where NPC1 cells were used and HE-PRX was added as a sample (HE-PRX added)”, and “the case where NPC1 cells were used and HE-SS-PRX was added as a sample (HE-SS-PRX added)”, and “the case where NHDF cells were used and none of the samples were added (non-treated)”. The amount added of each sample is equivalent to 100 μM of cyclodextrin.

Assay [4] concerns NPC1 cells. Nature of the assay: Cholesterol removal effect, dose-response (Test Examples 5, 6, 7-1). In kind it is cell-based, human. To be noted: 24 hours, concentration as cyclodextrin. The procedure:
Then, the cells were washed twice with phosphate-buffered solution, and 0.25% trypsin-EDTA solution (Gibco) was added to each well to peel the cells. The cells were collected into a 1.5 mL tube, and washed twice with phosphate buffered saline. Then, cell lysis solution (including 50 mM phosphate buffer solution, 500 mM sodium chloride, 25 mM cholic acid, and 0.5% Triton X-100) was added to each tube to lyse the cells.
In each cell lysate, the total cholesterol was quantified by Amplex Red Cholesterol Assay Kit (Invitrogen), and the total protein was quantified by micro BCA Protein Assay Kit (Thermo Fisher Scientific). The total cellular cholesterol content is shown as total cholesterol content (nmol)/total protein content (mg).
Similar assays to Test Example 5 were performed except that the following samples were used in order to investigate how the type of degradable linkage in polyrotaxane influences to cholesterol removal from NPC1.
Similar assays to Test Example 5 were performed except that the following samples were used in order to investigate how the type of functional group introduced into cyclodextrins in polyrotaxane influences to cholesterol removal from NPC1.

Assay [5] concerns NPC1 cells. Nature of the assay: Observation of autophagosomes by LC3 immunostaining (Test Example 8). Format: cell-based, human. Particulars: 24 hours, HP-β-CD 10 mM, HEE-SS-PRX equivalent to 1 mM β-CD. Here is the method: NPC1 cells were seeded on a 35 mm glass bottom dish (IWAKI) (cell count: 1.5×10^4 cells/dish), and incubated at 37° C. under a 5% CO2 atmosphere for one day, followed by the addition of the following samples and another 24-hour incubation.
After the culturing, the cells were fixed with 4% paraformaldehyde (Wako) for 10 minutes, treated with 50 μg/ml digitonin solution (Tokyo Chemical Industry) for 5 minutes to permeabilize the plasma membrane, and blocked with 1% BSA/PBS solution for 30 minutes.
The cells were then treated with Rabbit polyclonal anti-LC3 antibody (MBL) diluted to 1:200 with 1% BSA for one day at 4° C. After washing with PBS, the cells were stained with Alexa Fluor 488-conjugated goat anti-rabbit IgG (Abeam) (diluted to 1:1,000 with 1% BSA solution) for 30 minutes. After washing with PBS, the cells were observed by FluoView FV-10i (Olympus).
In FIG. 16E, in order from the left, the results on the following are shown: “the case where NHDF cells were used and none of the samples were added”, “the case where NPC1 cells were used and HP-β-CD was added as a sample (amount added: 10 mM)”, “the case where NPC1 cells were used and […] was added as a sample (amount added: amount equivalent to 1 mM concentration of β-CD on HEE-SS-PRX)”.

The test system of assay [6] is NPC disease patient-derived NPC2 mutant dermal fibroblasts. Kind of assay: LC3-II expression by Western blotting (Test Example 9). In kind it is cell-based, human. To be noted: NPC2-mutated fibroblasts; HP-β-CD 10 mM, HEE-SS-PRX 1 mM. Here is the method: (3) NPC disease patient-derived NPC2 mutant dermal fibroblasts (obtained from Coriell Institute; number: GM18455)
as §1, §2
(§4) 10 μL of the supernatant and 2.5 μL of Laemmli buffer (Bio-Rad) were mixed, and applied to a 12% acrylamide gel. Then, electrophoresis was performed at 150∇ for 45 minutes. Then, proteins were transferred to a polyvinylidene fluoride (PVDF) membrane (Bio-Rad) using trans-blot Turbo Blotting System (Bio-Rad). Then, blocking was carried out with 5% skim milk solution (Wako) for an hour. […]
as §3

Assay [7] concerns Fabry disease patient-derived dermal fibroblasts. Described as above. Format: cell-based, human. Particulars: HP-β-CD 10 mM, HEE-SS-PRX 1 mM. Here is the method: (4) Fabry disease patient-derived dermal fibroblasts (obtained from Coriell Institute; number: GM00107)
as §1, §2, §4, §3

Assay [8] has as its system GM1 gangliosidosis patient-derived dermal fibroblasts. Described as above. Format: cell-based, human. To be noted: HP-β-CD 10 mM, HEE-SS-PRX 1 mM. Here is the method:
(5) GM1 gangliosidosis patient-derived dermal fibroblasts (obtained from Coriell Institute; number: GM03589)
as §1, §2, §4, §3

Assay [9] concerns NPC1 cells. Nature of the assay: Observation of autolysosome formation, mRFP-EGFP-LC3 (Test Example 10). In kind it is cell-based, human. To be noted: 24 hours, HP-β-CD 10 mM, HEE-SS-PRX equivalent to 1 mM cyclodextrin.
In assay [10] the test system is NPC1 cells. Kind of assay: Fusion of autophagosomes and lysosomes, co-localization of mRFP-LC3 and LAMP1 (Test Example 11). To be noted: 24 hours, HP-β-CD 10 mM, HEE-SS-PRX equivalent to 1 mM cyclodextrin. In kind it is cell-based, human.
In assay [11] the test system is NPC disease patient-derived cells. Particulars: cited from earlier work.
In assay [12] the test system is Npc1-deficient mice (Npc1−/− mice). Particulars: cited from earlier work.
Setting [13] is: NHDF or NPC1 cells, Baf A added instead of the sample.

On to `CO/C1=C\C(C)=C\[C@@H](C)[C@@H](O)[C@@H](C)C/C(C)=C/C=C/[C@H](OC)[C@@H]([C@@H](C)[C@@H](O)[C@H](C)[C@@]2(O)C[C@@H](O)[C@H](C)[C@@H](C(C)C)O2)OC1=O` [Baf A, Bafilomycin A1], for which, in the assay on NPC1 cells [1] (setting [13]), the LC3 level result is on record as “significant increases” and the p62 level entry is recorded as “significant increases”.
In the case of `COC[C@H]1O[C@@H]2O[C@H]3[C@H](O)[C@@H](OC)[C@@H](O[C@H]4[C@H](O)[C@@H](OC)[C@@H](O[C@H]5[C@H](O)[C@@H](OC)[C@@H](O[C@H]6[C@H](O)[C@@H](OC)[C@@H](O[C@H]7[C@H](O)[C@@H](OC)[C@@H](O[C@H]8[C@H](O)[C@@H](OC)[C@@H](O[C@H]1[C@H](O)[C@H]2OC)O[C@@H]8COC)O[C@@H]7COC)O[C@@H]6COC)O[C@@H]5COC)O[C@@H]4COC)O[C@@H]3COC` [DM-β-CD, 2,6-dimethyl-β-cyclodextrin], the “Filipin fluorescence intensity (intracellular cholesterol)” value in assay [2] is “reduced”. Also, in assay [3], the “Amount of intracellular cholesterol accumulation (total cholesterol/total protein)” value is “capable of removing more cholesterol than HP-β-CD”. In addition, the “Half maximal effective concentration (ED50) from dose-response curve for cholesterol accumulation” value with NPC1 cells [4] was 230 µM.
For Hydroxypropyl β-cyclodextrin [HP-β-CD], in assay [3], the “Amount of intracellular cholesterol accumulation (total cholesterol/total protein)” value is listed as “subtle reduction of cholesterol”. Also, in the assay on NPC1 cells [4], the “Half maximal effective concentration (ED50) from dose-response curve for cholesterol accumulation” value came out at 2590 µM. Further, the “Number of LC3-positive vesicles in a cell” value in the assay with NPC1 cells [5] is reported as “further increased counts of LC3-positive vesicles”. Moreover, in the assay with NPC1 cells [1] (NPC1 cells, 24 hours, 10 mM), the “Expression level of p62” value is reported as “significantly increased”. For the same compound, the “Expression level of LC3-II” value in the assay with NPC1 cells [1] (NPC1 cells, 24 hours, HP-β-CD 0.1 to 10 mM, HEE-SS-PRX 0.01 to 1 mM) is “increased the expression of LC3-II in a concentration dependent manner”. In addition, the LC3-II level result in [6], in assay [7] and in assay [8] was “increase in LC3-II” each time. For the same compound, in the assay on NPC1 cells [9], the Number of autolysosomes entry was “no change in the number of autolysosomes”. For the same compound, the Number of autophagosomes result in the assay with NPC1 cells [9] is listed as “increase in the number of autophagosomes”. For the same compound, the “Co-localization rate of mRFP-LC3 and LAMP1” value in the assay on NPC1 cells [10] is given as “low”. The “Amount of cholesterol in cells” value in [11] was “the amount of cholesterol in cells decreases”. Also, the “Amount of cholesterol accumulated in each tissue” value in assay [12] is given as “decreases the amount of cholesterol accumulated in each tissue”. Besides, the Survival entry in assay [12] is “extends the survival”.
